We go through 1 sequence from patent US6444787B1, “Method of isolating a peptide which immunologically mimics microbial carbohydrates including group B streptococcal carbohydrates and the use thereof in a vaccine” (Research Development Institute, Inc., priority 1997, dated 2002).

For the series, the system named is anti-GBS antibodies. As to the kind of experiment: ELISA, binding of antibodies to synthetic peptide. The arrangement: species or system murine. The note with it: peptide coated at 10 μg/ml; FIG. 1 panel A. Here is the method: Microtiter wells were coated with peptide at 10 μg/ml and then blocked with 1% BSA. Test antibodies were added to the wells, incubated and washed. Antibody binding was detected with alkaline phosphatase conjugated anti-Ig and then substrate. The values are A405, mean of duplicate or triplicate samples. […] The binding of all antibodies to BSA was<0.1.
Capsular polysaccharide was coated directly onto microtiter wells.

Ends that are not written are not given here.

On to FDTGAFDPDWPAC, for which the “Binding of monoclonal antibodies S7 and S9 to peptide” value is “seen only with antibody S9”.
